Where two headings read alike, the source gives them in different places.
Tests used:
GalfNeoLect = GalfNeoLect (Streptomyces sp. JHA19, UniProt A0A0K2SRV3, E464Q); test: Competitive inhibition assay of GalfNGP binding to immobilised GalfNeoLect; design: species or system Streptomyces sp. strain JHA19; settings: for IC50: biotinylated GalfNGP (2 μg/mL) as tracer, read-out: IC50 of inhibitors towards GalfNeoLect; for inhibition of GalfNGP binding to immobilised GalfNeoLect: result in words
Protocol: In the competitive inhibition assay, we investigated the ability of selected pNP, azido, or thyoaryl monosaccharide substrates (Galf-N3, Galf-thioaryl, pNP-β-D-Galf, pNP-β-D-Galp, pNP-α-L-Araf, pNP-β-D-Ribf) (Figure 5) for their ability to inhibit the binding of GalfNGP to immobilised GalfNeoLect.
(§1) The interaction profiles of each compound were determined through an indirect method, based on the inhibition by the compound of the interaction between a specific coupled lectin–glycan (a neoglycoprotein labelled with biotin and used as a tracer). Briefly, a mix of biotinylated GalfNGP (fixed concentration) and the corresponding compounds (in a range of concentrations), prepared in PBS supplemented with 1 mM CaCl2 and 0.5 mM MgCl2, are deposed in each well (50 μL each) in triplicate and incubated for 2 h at room temperature. After washing with PBS buffer, the conjugate streptavidin-DTAF was added (50 μL) and incubated for 30 min more. The plate was washed again with PBS. Finally, 100 μL of PBS was added for the readout of the fluorescent plate, performed with a fluorescence reader (λex = 485 nm, λem = 530 nm, Fluostar OPTIMA, BMG LABTECH, France). The signal intensity was inversely correlated with the capacity of the compound to be recognised by the lectin and expressed as inhibition percentage with comparison with the corresponding biotinylated GalfNGP alone.
Aspergillus brasiliensis (ATCC 16404) culture was inoculated on Sabouraud agar plates and incubated at 37 °C for 4 days until the formation of a black mycelium mat, which contains spores. Fresh spores were harvested with a sterile plastic inoculation loop by rubbing the black mycelium mat and dispersed in physiological serum solution (0.8% NaCl, 10 mL). The spore solution was resuspended well by using a vortex to prevent aggregation and was calibrated using a Malassez counting chamber to 5.10^6 spores/mL. Spores’ solutions (5.10^6 spores/mL) were used directly in inhibition assays with GalfNeoLect, following the same protocol describe above (Section 4.8).

wild-type Galf-ase [1] = target: T1, wild-type Galf-ase (Streptomyces sp. JHA19, UniProt A0A0K2SRV3); test: Competitive inhibition assay of GalfNGP binding to wild-type Galf-ase; design: species or system Streptomyces sp. strain JHA19; settings: biotinylated GalfNGP (2 μg/mL) as tracer; read-out: IC50 of inhibitors towards wild-type Galf-ase
Protocol: Indeed, Table 6 summarises the 50% inhibitory concentrations (IC50) obtained from all compounds studied.
as §1
Target sequence in this assay (A0A0K2SRV3 45-786 limits assumed): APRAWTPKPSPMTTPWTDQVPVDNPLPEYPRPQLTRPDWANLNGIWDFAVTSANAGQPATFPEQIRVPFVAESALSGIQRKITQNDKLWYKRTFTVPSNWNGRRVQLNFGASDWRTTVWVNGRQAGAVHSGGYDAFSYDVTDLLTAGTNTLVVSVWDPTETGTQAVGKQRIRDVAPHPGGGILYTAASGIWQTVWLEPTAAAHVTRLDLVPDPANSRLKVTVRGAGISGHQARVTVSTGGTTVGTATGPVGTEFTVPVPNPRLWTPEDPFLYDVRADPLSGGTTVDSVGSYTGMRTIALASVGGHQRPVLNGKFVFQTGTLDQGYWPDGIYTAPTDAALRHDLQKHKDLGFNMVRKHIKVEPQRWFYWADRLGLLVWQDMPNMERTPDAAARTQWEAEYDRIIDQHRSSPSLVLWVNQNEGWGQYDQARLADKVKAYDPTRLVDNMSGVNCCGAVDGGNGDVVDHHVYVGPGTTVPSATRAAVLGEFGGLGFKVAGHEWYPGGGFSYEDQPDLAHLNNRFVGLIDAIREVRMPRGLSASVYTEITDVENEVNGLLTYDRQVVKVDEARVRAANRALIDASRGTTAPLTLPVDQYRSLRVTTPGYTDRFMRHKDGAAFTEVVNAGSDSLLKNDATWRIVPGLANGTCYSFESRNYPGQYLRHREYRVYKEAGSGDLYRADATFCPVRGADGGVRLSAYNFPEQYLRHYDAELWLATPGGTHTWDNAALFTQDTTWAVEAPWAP

wild-type Galf-ase [2] = target: T1, wild-type Galf-ase; test: Direct binding assay (ELLA) of biotinylated neoglycoproteins to immobilised wild-type Galf-ase; design: species or system Streptomyces sp. strain JHA19; settings: read-out: BC50 (concentration to obtain 50% GalfNGP binding)
Text: To study and evaluate the binding interactions of Galf-ase E464Q mutant variant, as novel Galf-binding lectin (GalfNeoLect), we synthetised novel neoglycoproteins (NGPs) to serve as the Galf-bearing scaffold. Bovine serum albumin (BSA), a well-known, naturally unglycosylated protein that has up to 60 primary amino functional groups available for click-conjugation chemistry, has been functionalised with Galf motifs. Galf-N3, involved in the corresponding click reaction with propargyl functionalised BSA, was obtained from the corresponding per-O-acetyl galactofuranose using TMSN3 as a source of azide and TMSOTf as the Lewis acid (see ESI for chemical synthesis). After acetyl cleavage, the resulting/expected Galf-conjugated BSA neoglycoprotein (GalfNGP) synthesis has been first characterised for its functionality by direct binding assay with human Intelectin-1 (hIntL-1), wild-type Galf-ase, and GalfNeoLect. As hIntL-1 has been reported to bind furanose residues (five-membered-ring saccharide isomers), including a β-Galf–containing disaccharide, it served as a positive control for the evaluation of newly synthetised GalfNGP. […]
The assays were performed according to GlycoDiag’s protocol, already described in the literature. […] Finally, 100 μL of PBS was added for reading the plate using a fluorescence reader (λex = 485 nm, λem = 530 nm, Fluostar OPTIMA, BMG LABTECH, France). […]

E464C = test system: T2, E464C; test: Absorbance at 405 nm of p-nitrophenol released by hydrolysis of pNP-β-D-Galf (0.01-5 mM), citrate/phosphate buffer pH 4.5, 37 °C, 20 min, stopped with Na2CO3.; format: biochemical; settings: n = 3
T2 construct: pET-28a(+) construct, expressed in E. coli Rosetta (DE3), Ni-NTA purified
Protocol: (§2) In analysing the hydrolitic activity and the hydrolysis rate-limiting steps of the three Galf-ase mutant variants E464S, E464C, and E464Q, the Michaelis–Menten kinetic parameters were determined under the similar conditions used for wild-type enzyme. […] Altogether, the obtained values are in the same order of magnitude. […] The significant decrease in catalytic efficiency by a factor of 3000–1400 times for E464S and E464C mutants, respectively, and 56 times lower for E464Q mutant is observed. These kinetic observations are in accordance with the other data obtained in similar assays used for the identification of the catalytic residues in retaining and inverting several GHs. The Galf-ase mutant variant E464Q featured only a minor change in the KM value, 166 µM compared to 250 µM, of the wild-type Galf-ase and, given the advantage that, contrary to other mutant variants, it was purified in sufficient quantities (0.3 mg/L), it was selected as a promising candidate to be tested as a novel Galf-binding lectin (GalfNeoLect). Further in the article, the E464Q mutant variant is addressed as GalfNeoLect.
(§3) Kinetic parameters were determined with pNP-β-D-Galf as a substrate in different concentration ranges (0.01–5 mM). The reaction (200 μL), containing buffer (20 μL; 0.1 M citric acid/0.2 M Na2HPO4 pH 4.5) and water, if required, was started by addition of the enzyme (2 μL; 0.13 mg/mL) and, after 20 min of incubation at 37 °C (water bath), the reaction was terminated (100 μL; 1 M Na2CO3) and absorbance (405 nm) of released pNP was measured. All the reactions were assayed in triplicate and absorbance values were corrected for the spontaneous hydrolysis of the substrate. The kinetic parameters (KM, Vm, kcat) were calculated using GraphPad Prism 5 software (GraphPad Software, San Diego, CA, USA).
(§4) Figure S4. Michaelis–-Menten plot of pNP-β-D-Galf hydrolysis reaction catalysed by Galf-ase E464S, E464C, and
(§5) E464Q mutant variants. Mean values and SD error bars were calculated from three independent experiments
(§6) (*except E464C) and from a single protein preparation. […]

E464Q (GalfNeoLect) = test system: T3, E464Q (GalfNeoLect); test: as above; format: biochemical; settings: n = 3
T3 construct: pET-28a(+) construct, expressed in E. coli Rosetta (DE3), Ni-NTA purified
Protocol: as §2, §3, §4, §5, §6

E464S = test system: T4, E464S; test: as above; format: biochemical; settings: n = 3
T4 construct: pET-28a(+) construct, expressed in E. coli Rosetta (DE3), Ni-NTA purified
Protocol: as §2, §3, §4, §5, §6

[3] = test system: T5, Galf-ase (wild-type Galf-ase; E464); test: as above; format: biochemical; settings: n = 3; cited from earlier work
T5 construct: pET-28a(+) construct, expressed in E. coli Rosetta (DE3), Ni-NTA purified
Protocol: as §2, with “Further in the article, the E464Q mutant variant is addressed as GalfNeoLect.” left out
Kinetic parameters were determined with pNP-β-D-Galf as a substrate in different concentration ranges (0.01–5 mM). […] All the reactions were assayed in triplicate and absorbance values were corrected for the spontaneous hydrolysis of the substrate. The kinetic parameters (KM, Vm, kcat) were calculated using GraphPad Prism 5 software (GraphPad Software, San Diego, CA, USA). […]

Chain of GalfNeoLect (A0A0K2SRV3 45-786 E464Q limits assumed): as the sequence (A0A0K2SRV3 45-786 limits assumed) above, with E420Q counted along it

| Compound | IC50 (GalfNeoLect) [µM] | IC50 (wild-type Galf-ase [1]) [µM] | inhibition of GalfNGP binding to immobilised GalfNeoLect (GalfNeoLect) | other results |
| --- | --- | --- | --- | --- |
| O=[N+]([O-])c1ccc(O[C@@H]2O[C@@H]([C@H](O)CO)[C@H](O)[C@H]2O)cc1 [pNP-β-D-Galf] | 1140 | 560 | – | – |
| O=[N+]([O-])c1ccc(O[C@@H]2O[C@@H](CO)[C@H](O)[C@H]2O)cc1 [pNP-α-L-Araf] | – | – | no inhibition | – |
| Cc1ccc(S[C@@H]2O[C@@H]([C@H](O)CO)[C@H](O)[C@H]2O)cc1 [Galf-thioaryl] | 180 | 180 | – | IC50 (GalfNeoLect; listed as Galf-Thioaryl): 150 µM |
| GalfNGP: Galf-conjugated bovine serum albumin neoglycoprotein carrying multivalent Galf units | – | – | – | EC50 (wild-type Galf-ase [2]): 0.024 µM |
| O=[N+]([O-])c1ccc(O[C@@H]2O[C@@H]([C@H](O)CO)[C@H](O)[C@H]2O)cc1 [pNP-β-D-Galf, p-nitrophenyl β-D-galactofuranoside] | – | – | – | Km (E464C): 170 µM; Km (E464Q (GalfNeoLect)): 166 µM; Km (E464S): 36 µM; Km [3]: 250 µM |
| O=[N+]([O-])c1ccc(O[C@@H]2O[C@H](CO)[C@H](O)[C@H](O)[C@H]2O)cc1 [pNP-β-D-Galp] | – | – | no inhibition | – |
| O=[N+]([O-])c1ccc(OC2OC(CO)C(O)C2O)cc1 [pNP-β-D-Ribf] | – | – | no inhibition | – |
| [N-]=[N+]=N[C@@H]1O[C@@H]([C@H](O)CO)[C@H](O)[C@H]1O [Galf-N3, β-D-galactofuranosyl azide] | 1390 | 590 | – | – |
